Data taken from PubChem BioAssay AID248 (DTP/NCI, 2004).
“And” between values parts separate entries of the source, which are not always exact repeats. Equal values may be shown once. Inconclusive results and toxic doses are left out. No stated cut-off is given here; in the data, active means T/C of 150% or more; inactive means T/C below 125%.

System: L1210 leukemia ip in BDF1 mice, survival T/C
Assay: NCI In Vivo Anticancer Drug Screen. Data for tumor model L1210 Leukemia (intraperitoneal) in B6D2F1 (BDF1) mice
Conditions: endpoint: mean survival time, higher = longer survival
Procedure, shortened: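 Read-out is survival time, reported as the treated-group measurement over the vehicle-control measurement.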

[1] = dose: 100.0 mg/kg/injection, schedule: Q01DX001 (ip), vehicle: saline with Tween-80
[2] = dose: 100.0 mg/kg/injection, schedule: Q01DX009 (ip), vehicle: saline with Tween-80
[3] = dose: 200.0 mg/kg/injection, schedule: Q01DX001 (ip), vehicle: saline with Tween-80
[4] = dose: 200.0 mg/kg/injection, schedule: Q01DX009 (ip), vehicle: saline with Tween-80
[5] = dose: 400.0 mg/kg/injection, schedule: Q01DX001 (ip), vehicle: saline with Tween-80
[6] = dose: 400.0 mg/kg/injection, schedule: Q01DX009 (ip), vehicle: saline with Tween-80
[7] = dose: 100.0 mg/kg/injection, schedule: Q01DX001 (ip), vehicle: saline
[8] = dose: 200.0 mg/kg/injection, schedule: Q01DX001 (ip), vehicle: saline
[9] = dose: 400.0 mg/kg/injection, schedule: Q01DX001 (ip), vehicle: saline
[10] = dose: 100.0 mg/kg/injection, schedule: Q04DX003 (ip), vehicle: Klucel (hydroxypropylcellulose) (HPC)
[11] = dose: 200.0 mg/kg/injection, schedule: Q04DX003 (ip), vehicle: Klucel (hydroxypropylcellulose) (HPC)
[12] = dose: 100.0 mg/kg/injection, schedule: Q04DX003 (ip), vehicle: saline
[13] = dose: 200.0 mg/kg/injection, schedule: Q04DX003 (ip), vehicle: saline
[14] = dose: 400.0 mg/kg/injection, schedule: Q04DX003 (ip), vehicle: saline

Measured: T/C

CC(C)(C)C(=O)C1C(=O)c2ccccc2C1=O
inactive: dose: 0.25 mg/kg/injection, schedule: Q01DX009 (ip), vehicle: Klucel (hydroxypropylcellulose) (HPC) 101 % of control | dose: 0.25 mg/kg/injection, schedule: Q04DX003 (ip), vehicle: Klucel (hydroxypropylcellulose) (HPC) 95 % of control | dose: 0.5 mg/kg/injection, schedule: Q01DX009 (ip), vehicle: Klucel (hydroxypropylcellulose) (HPC) 95 % of control | dose: 0.5 mg/kg/injection, schedule: Q04DX003 (ip), vehicle: Klucel (hydroxypropylcellulose) (HPC) 101 % of control | dose: 1.0 mg/kg/injection, schedule: Q01DX009 (ip), vehicle: Klucel (hydroxypropylcellulose) (HPC) 104 % of control | dose: 1.0 mg/kg/injection, schedule: Q04DX003 (ip), vehicle: Klucel (hydroxypropylcellulose) (HPC) 100 % of control

COc1ccc(N2C(=O)CC(Cl)C2=O)cc1 (stereo not drawn)
inactive: dose: 22.0 mg/kg/injection, schedule: Q04DX003 (ip), vehicle: Klucel (hydroxypropylcellulose) (HPC) 105 % of control | dose: 44.0 mg/kg/injection, schedule: Q04DX003 (ip), vehicle: Klucel (hydroxypropylcellulose) (HPC) 97 % of control | dose: 87.5 mg/kg/injection, schedule: Q04DX003 (ip), vehicle: saline with Tween-80 103 % of control | dose: 88.0 mg/kg/injection, schedule: Q04DX003 (ip), vehicle: Klucel (hydroxypropylcellulose) (HPC) 111 % of control

CC(=O)Oc1ccccc1C1OC(=O)c2ccccc2N1C(C)=O (stereo not drawn)
inactive: [1] 106 % of control | [2] 101 % of control and 103 % of control | dose: 100.0 mg/kg/injection, schedule: Q04DX002 (ip), vehicle: saline with Tween-80 105 % of control and 87 % of control | [3] 104 % of control | [4] 93 % of control and 102 % of control | dose: 200.0 mg/kg/injection, schedule: Q04DX002 (ip), vehicle: saline with Tween-80 96 % of control and 97 % of control | [5] 103 % of control | [6] 93 % of control | dose: 400.0 mg/kg/injection, schedule: Q04DX002 (ip), vehicle: saline with Tween-80 94 % of control and 105 % of control

NC(=S)N/N=C(/c1cccs1)C1CC1
inactive: dose: 4.0 mg/kg/injection, schedule: Q01DX Z (ip), vehicle: carboxymethylcellulose (CMC) 116 % of control | dose: 4.0 mg/kg/injection, schedule: Q01DX Z (oral), vehicle: carboxymethylcellulose (CMC) 97 % of control | dose: 8.0 mg/kg/injection, schedule: Q01DX Z (ip), vehicle: carboxymethylcellulose (CMC) 107 % of control | dose: 8.0 mg/kg/injection, schedule: Q01DX Z (oral), vehicle: carboxymethylcellulose (CMC) 115 % of control | dose: 16.0 mg/kg/injection, schedule: Q01DX Z (oral), vehicle: carboxymethylcellulose (CMC) 107 % of control

COC(=O)/C=C/c1cccc([N+](=O)[O-])c1
inactive: [7] 100 % of control | [8] 100 % of control | [9] 100 % of control

[Mn+2].[NH-]CC(=O)O.[NH-]CC(=O)O
inactive: [7] 96 % of control

c1ccc(COc2ccccn2)cc1
inactive: dose: 50.0 mg/kg/injection, schedule: Q01DX009 (ip), vehicle: Klucel (hydroxypropylcellulose) (HPC) 95 % of control | dose: 100.0 mg/kg/injection, schedule: Q01DX009 (ip), vehicle: Klucel (hydroxypropylcellulose) (HPC) 97 % of control | [10] 98 % of control | [11] 98 % of control

C=CCC(Cc1cc(CC(CC=C)(C(=O)OCC)C(=O)OCC)cc(CC(CC=C)(C(=O)OCC)C(=O)OCC)c1)(C(=O)OCC)C(=O)OCC
inactive: dose: 100.0 mg/kg/injection, schedule: Q04DX003 (ip), vehicle: acetone 107 % of control | dose: 200.0 mg/kg/injection, schedule: Q04DX003 (ip), vehicle: acetone 90 % of control | dose: 400.0 mg/kg/injection, schedule: Q04DX003 (ip), vehicle: acetone 96 % of control

N#CC1(C#N)C2C=CC(C3CCC=C32)C1(C#N)C#N (stereo not drawn)
inactive: dose: 12.5 mg/kg/injection, schedule: Q01DX009 (ip), vehicle: saline with Tween-80 109 % of control | dose: 25.0 mg/kg/injection, schedule: Q01DX009 (ip), vehicle: saline with Tween-80 96 % of control | dose: 25.0 mg/kg/injection, schedule: Q04DX003 (ip), vehicle: saline with Tween-80 104 % of control | dose: 50.0 mg/kg/injection, schedule: Q01DX009 (ip), vehicle: saline with Tween-80 111 % of control | dose: 50.0 mg/kg/injection, schedule: Q04DX003 (ip), vehicle: saline with Tween-80 95 % of control | dose: 100.0 mg/kg/injection, schedule: Q04DX003 (ip), vehicle: saline with Tween-80 93 % of control

CN(N=O)C(=O)Nc1cccc2cccnc12
inactive: dose: 6.25 mg/kg/injection, schedule: Q01DX Z (ip), vehicle: carboxymethylcellulose (CMC) 101 % of control | dose: 12.5 mg/kg/injection, schedule: Q01DX Z (ip), vehicle: carboxymethylcellulose (CMC) 106 % of control | dose: 25.0 mg/kg/injection, schedule: Q01DX Z (ip), vehicle: carboxymethylcellulose (CMC) 124 % of control

CC(=O)c1ccc2ccc3ccccc3c2c1
inactive: dose: 75.0 mg/kg/injection, schedule: Q01DX009 (ip), vehicle: saline 98 % of control | [12] 98 % of control | dose: 150.0 mg/kg/injection, schedule: Q01DX009 (ip), vehicle: saline 98 % of control | [13] 101 % of control | dose: 300.0 mg/kg/injection, schedule: Q01DX009 (ip), vehicle: saline 95 % of control | [14] 101 % of control

c1ccc(-c2cc3ccccc3[nH]2)cc1
inactive: dose: 100.0 mg/kg/injection, schedule: Q01DX001 (ip), vehicle: Klucel (hydroxypropylcellulose) (HPC) 98 % of control | dose: 200.0 mg/kg/injection, schedule: Q01DX001 (ip), vehicle: Klucel (hydroxypropylcellulose) (HPC) 96 % of control | dose: 200.0 mg/kg/injection, schedule: Q01DX009 (ip), vehicle: Klucel (hydroxypropylcellulose) (HPC) 94 % of control | dose: 400.0 mg/kg/injection, schedule: Q01DX001 (ip), vehicle: Klucel (hydroxypropylcellulose) (HPC) 102 % of control

CCC(=O)NCC1(c2ccccc2)CCN(CCCC(=O)c2ccc(F)cc2)CC1
inactive: dose: 25.0 mg/kg/injection, schedule: Q01DX009 (ip), vehicle: saline 121 % of control | dose: 50.0 mg/kg/injection, schedule: Q01DX009 (ip), vehicle: saline 113 % of control | dose: 100.0 mg/kg/injection, schedule: Q01DX009 (ip), vehicle: saline 121 % of control

CC(=O)Oc1ccc(OC(C)=O)c2c1C1C=CC2C1
inactive: [7] 103 % of control | [8] 103 % of control | [9] 101 % of control

CCOP(=S)(N/N=C1\CC2CCC1C2)OCC (stereo not drawn)
inactive: dose: 100.0 mg/kg/injection, schedule: Q01DX001 (ip), vehicle: other 94 % of control

O=C(C1CC2CCC1C2)C1CC2CCC1C2 (stereo not drawn)
inactive: [2] 98 % of control | [10] 97 % of control | [4] 95 % of control | [11] 100 % of control | [6] 96 % of control | dose: 400.0 mg/kg/injection, schedule: Q04DX003 (ip), vehicle: Klucel (hydroxypropylcellulose) (HPC) 100 % of control

O=C(O)C1C=CCC(C(=O)O)C1 (stereo not drawn)
inactive: [12] 98 % of control | [13] 108 % of control | [14] 95 % of control

CC(O)C1(O)C(O)CC(OC2c3cc4c(c(O)c3[C@@H]3C[C@@]2(C)OC32C=c3cc[nH]c3=N2)C(=O)c2cccc(O)c2C4=O)OC1C (stereo partly drawn)
inactive: dose: 0.5 mg/kg/injection, schedule: Q01DX009 (ip), vehicle: saline with Tween-80 101 % of control | dose: 1.0 mg/kg/injection, schedule: Q01DX009 (ip), vehicle: saline with Tween-80 101 % of control | dose: 2.0 mg/kg/injection, schedule: Q01DX009 (ip), vehicle: saline with Tween-80 105 % of control | dose: 2.0 mg/kg/injection, schedule: Q01DX009 (ip), vehicle: saline 112 % of control | dose: 4.0 mg/kg/injection, schedule: Q01DX009 (ip), vehicle: saline with Tween-80 110 % of control | dose: 4.0 mg/kg/injection, schedule: Q01DX009 (ip), vehicle: saline 109 % of control | dose: 8.0 mg/kg/injection, schedule: Q01DX009 (ip), vehicle: saline with Tween-80 103 % of control | dose: 8.0 mg/kg/injection, schedule: Q01DX009 (ip), vehicle: saline 106 % of control | dose: 16.0 mg/kg/injection, schedule: Q01DX009 (ip), vehicle: saline 121 % of control | dose: 32.0 mg/kg/injection, schedule: Q01DX009 (ip), vehicle: saline 104 % of control

CN(C)C(=O)Sc1ccc(SC(=O)N(C)C)cc1
inactive: [1] 97 % of control | [3] 97 % of control | [5] 97 % of control
